# Patent EP1518554A1, “Pharmaceutical composition for the treatment of hyperhomocysteinemia” (Medosan Industrie Biochimiche Riunite S.r.l., priority 2003, dated 2005)
# Test system: homocysteine ematic level
# Assay: Randomised clinical study in patients with hyperhomocysteinemia; plasma homocysteine determined by immunoenzymatic test (EIA) at enrolment and after 30 days of treatment
# Assay type: in vivo
# Source text: Assessments about the pharmacological effectiveness of the composition according to the present invention have been carried out according to the following study protocol.
# The experimentation has examined a total number of 60 patients assigned to one of the two treatment groups (30 patients to group A and 30 patients to group B).
# • Patients of both sexes • Age older than 18 • Homocysteinemia level >15 µmol/l
# • Patients suffering from diseases interfering with the homocysteine dosage • Patients in therapy with drugs interfering with the homocysteine metabolism (isoniazid, antiepileptic, methotrexate) • Subjects with ascertained individual hypersensitivity towards the active principles and/of the excipients of the product • Women during pregnancy or puerperium • Patients suffering from diabetes mellitus […]
# The obtained data have been assessed statistically withe Student's t test and the significance is expressed as follows: P<0.05*; P<0.01**; P<0.001***
substance,measurement,setting,value
arginine glutamate,reduction in the homocysteine plasmatic levels,"general statement of the applicant's experimental data, dose and duration not stated at the place",10-15%
same,reduction in the homocysteine plasmatic values,"patients with homocysteinemia >15 µmol/l, 10-ml small bottle which can be drunk, twice a day for 30 days, 30 patients per group, Student's t test (composition 9 p≤0.001; arginine glutamate only p≤0.01)",12%
